According to US20260070945A1, “MACROCYCLIC IMMUNOMODULATORS” (Bristol-Myers Squibb Company, priority 2022, published 2026):
*1 amine or outer side, *2 acyl side, *3 side chain or, on linkers, in order; H or OH if unused. Where a SMILES comes first, the peptide text is derived from it. Bridges are numbered along the chain shown (N, C = ends). [ ]: non-standard residue; d: D form. The star is where a group is joined. ξ: configuration not given here. Bip = N[C@@H](Cc1ccc(-c2ccccc2)cc1)C(=O)O; Phe(3-Me) = Cc1cccc(C[C@H](N)C(=O)O)c1; γGlu = O=C(O)[C@H](CCC(=O)[*:2])N[*:1]; NH(CH2)12COOH = O=C(O)CCCCCCCCCCCCN*; Val(3-OH) = CC(C)(O)[C@H](N)C(=O)O; Cha = N[C@@H](CC1CCCCC1)C(=O)O; Thr(3ξ) = CC(O)[C@H](N)C(=O)O; 12Ado = NCCCCCCCCCCCC(=O)O; Carboxymethyl = O=C(O)C*; NMeA = CN[C@@H](C)C(=O)O; Nle = CCCC[C@H](N)C(=O)O; Dab = NCC[C@H](N)C(=O)O; AEEA = NCCOCCOCC(=O)O

target: T1, PD-1/PD-L1 interaction (PE-labeled human PD-L1-Ig binding to Jurkat cell line over-expressing human PD-1) (Homo sapiens, UniProt Q15116); experiment: Jurkat-PD-1 Cell Binding High-Content Screening Assay (CBA); conditions: PE-labeled PD-L1-Ig 20 nM final, Jurkat-hPD-1 cells; read-out: Jurkat HPD1 PDL1 IC50
T1 construct: expressed in transfected cells; host or cells: Jurkat
How it was run: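 Compound is added first to the PD-1-expressing Jurkat cells and held 2 h at 37 °C in serum-containing DMEM. The fluorescent PD-L1 fusion follows at 20 nM final for 1 h. Fixed, Hoechst-stained cells are then imaged for bound label.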

T1 sequence (Q15116 25-288): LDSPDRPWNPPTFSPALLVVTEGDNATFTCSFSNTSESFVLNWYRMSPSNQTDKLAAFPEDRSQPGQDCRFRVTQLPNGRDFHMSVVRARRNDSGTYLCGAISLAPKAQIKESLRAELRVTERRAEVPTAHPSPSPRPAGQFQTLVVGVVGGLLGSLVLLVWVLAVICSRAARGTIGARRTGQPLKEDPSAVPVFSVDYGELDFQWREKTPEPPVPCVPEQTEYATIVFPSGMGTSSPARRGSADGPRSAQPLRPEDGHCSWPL

Structure (SMILES)	IC50
Cc1cccc(C[C@@H]2NC(=O)[C@H](CC(=O)O)NC(=O)[C@H](Cc3ccc(OCC(=O)O)cc3)NC(=O)[C@H](C(C)O)NC(=O)CSC[C@@H](C(=O)N[C@@H](CCN)C(=O)NCCOCCOCC(=O)N[C@@H](CCC(=O)NCCOCCOCC(=O)NCCCCCCCCCCCCC(=O)O)C(=O)O)NC(=O)[C@H](CCC(=O)O)NC(=O)[C@H](C(C)C)NC(=O)[C@H](CC3CCCCC3)NC(=O)[C@H](CCN)NC(=O)[C@@H](CC(C)C)NC(=O)[C@H](C)N(C)C(=O)[C@H](Cc3ccc(OCC(=O)O)cc3)NC(=O)[C@H](Cc3ccc(-c4ccccc4)cc3)NC(=O)[C@H](Cc3ccc(OCC(=O)O)cc3)NC2=O)c1 (stereo partly drawn) [Example 2656] ({CH2CO}-[Thr(3ξ)]Y(Carboxymethyl)D[Phe(3-Me)]Y(Carboxymethyl)[Bip]Y(Carboxymethyl)[NMeA][dL][Dab][Cha]VEC[Dab][AEEA][γGlu][AEEA]-{NH(CH2)12COOH}; thioether N-14)	85.6 nM
CCCC[C@@H]1NC(=O)CSC[C@@H](C(=O)N[C@@H](CCN)C(=O)NCCOCCOCC(=O)N[C@@H](CCC(=O)NCCOCCOCC(=O)NCCCCCCCCCCCCC(=O)O)C(=O)O)NC(=O)[C@H](CCC(=O)O)NC(=O)[C@H](C(C)C)NC(=O)[C@H](CC2CCCCC2)NC(=O)[C@H](CCN)NC(=O)[C@@H](CC(C)C)NC(=O)[C@H](C)N(C)C(=O)[C@H](Cc2ccc(OCC(=O)O)cc2)NC(=O)[C@H](Cc2ccc(-c3ccccc3)cc2)NC(=O)[C@H](Cc2ccc(OCC(=O)O)cc2)NC(=O)[C@H](Cc2cccc(C)c2)NC(=O)[C@H](CC(=O)O)NC(=O)[C@H](Cc2ccc(OCC(=O)O)cc2)NC1=O [Example 2657] ({CH2CO}-[Nle]Y(Carboxymethyl)D[Phe(3-Me)]Y(Carboxymethyl)[Bip]Y(Carboxymethyl)[NMeA][dL][Dab][Cha]VEC[Dab][AEEA][γGlu][AEEA]-{NH(CH2)12COOH}; thioether N-14)	88.3 nM
CC(=O)NCCCC[C@@H]1NC(=O)[C@H](C(C)(C)O)NC(=O)[C@H](CC2CCCCC2)NC(=O)[C@H](CCN)NC(=O)[C@@H](CC(C)C)NC(=O)[C@H](C)N(C)C(=O)[C@H](Cc2ccc(OCC(=O)O)cc2)NC(=O)[C@H](Cc2ccc(-c3ccccc3)cc2)NC(=O)[C@H](Cc2ccc(OCC(=O)O)cc2)NC(=O)[C@H](Cc2cccc(C)c2)NC(=O)[C@H](CC(=O)O)NC(=O)[C@H](Cc2ccc(OCC(=O)O)cc2)NC(=O)[C@H](C(C)O)NC(=O)CSC[C@@H](C(=O)N[C@@H](CCN)C(=O)NCCOCCOCC(=O)N[C@@H](CCC(=O)NCCCCCCCCCCCCC(=O)O)C(=O)O)NC1=O (stereo partly drawn) [Example 2658] ({CH2CO}-[Thr(3ξ)]Y(Carboxymethyl)D[Phe(3-Me)]Y(Carboxymethyl)[Bip]Y(Carboxymethyl)[NMeA][dL][Dab][Cha][Val(3-OH)]K(Ac)C[Dab][AEEA]E(NH(CH2)12COOH)-OH; thioether N-14)	23.6 nM
Cc1cccc(C[C@@H]2NC(=O)[C@H](CC(=O)O)NC(=O)[C@H](Cc3ccc(OCC(=O)O)cc3)NC(=O)[C@H]([C@@H](C)O)NC(=O)CSC[C@@H](C(=O)N[C@@H](CCN)C(=O)NCCOCCOCC(=O)NCCCCCCCCCCCC(=O)O)NC(=O)CNC(=O)[C@H](C(C)C)NC(=O)[C@H](CC3CCCCC3)NC(=O)[C@H](CCN)NC(=O)[C@@H](CC(C)C)NC(=O)[C@H](C)N(C)C(=O)[C@H](Cc3ccc(OCC(=O)O)cc3)NC(=O)[C@H](Cc3ccc(-c4ccccc4)cc3)NC(=O)[C@H](Cc3ccc(OCC(=O)O)cc3)NC2=O)c1 [Example 2664] ({CH2CO}-TY(Carboxymethyl)D[Phe(3-Me)]Y(Carboxymethyl)[Bip]Y(Carboxymethyl)[NMeA][dL][Dab][Cha]VGC[Dab][AEEA][12Ado]-OH; thioether N-14)	2.3 nM
Cc1cccc(C[C@@H]2NC(=O)[C@H](CC(=O)O)NC(=O)[C@H](Cc3ccc(OCC(=O)O)cc3)NC(=O)[C@H]([C@@H](C)O)NC(=O)CSC[C@@H](C(=O)N[C@@H](CCN)C(=O)NCCOCCOCC(=O)NCCCCCCCCCCCC(=O)O)NC(=O)[C@H](CCC(=O)O)NC(=O)[C@H](C(C)C)NC(=O)[C@H](CC3CCCCC3)NC(=O)[C@H](CCN)NC(=O)[C@@H](CC(C)C)NC(=O)[C@H](C)N(C)C(=O)[C@H](Cc3ccc(O)cc3)NC(=O)[C@H](Cc3ccc(-c4ccccc4)cc3)NC(=O)[C@H](Cc3ccc(OCC(=O)O)cc3)NC2=O)c1 [Example 2665] ({CH2CO}-TY(Carboxymethyl)D[Phe(3-Me)]Y(Carboxymethyl)[Bip]Y[NMeA][dL][Dab][Cha]VEC[Dab][AEEA][12Ado]-OH; thioether N-14)	1.2 nM
Cc1cccc(C[C@@H]2NC(=O)[C@H](CC(=O)O)NC(=O)[C@H](Cc3ccc(OCC(=O)O)cc3)NC(=O)[C@H]([C@@H](C)O)NC(=O)CSC[C@@H](C(=O)N[C@@H](CCN)C(=O)NCCOCCOCC(=O)NCCCCCCCCCCCC(=O)O)NC(=O)[C@H](CCC(=O)O)NC(=O)[C@H](C(C)C)NC(=O)[C@H](CC3CCCCC3)NC(=O)[C@H](CCN)NC(=O)[C@@H](CC(C)C)NC(=O)[C@H](C)N(C)C(=O)[C@H](Cc3ccc(OCC(=O)O)cc3)NC(=O)[C@H](Cc3ccc(-c4ccccc4)cc3)NC(=O)[C@H](Cc3ccc(O)cc3)NC2=O)c1 [Example 2666] ({CH2CO}-TY(Carboxymethyl)D[Phe(3-Me)]Y[Bip]Y(Carboxymethyl)[NMeA][dL][Dab][Cha]VEC[Dab][AEEA][12Ado]-OH; thioether N-14)	0.7 nM
Cc1cccc(C[C@@H]2NC(=O)[C@H](CC(=O)O)NC(=O)[C@H](Cc3ccc(O)cc3)NC(=O)[C@H]([C@@H](C)O)NC(=O)CSC[C@@H](C(=O)N[C@@H](CCN)C(=O)NCCOCCOCC(=O)NCCCCCCCCCCCC(=O)O)NC(=O)[C@H](CCC(=O)O)NC(=O)[C@H](C(C)C)NC(=O)[C@H](CC3CCCCC3)NC(=O)[C@H](CCN)NC(=O)[C@@H](CC(C)C)NC(=O)[C@H](C)N(C)C(=O)[C@H](Cc3ccc(OCC(=O)O)cc3)NC(=O)[C@H](Cc3ccc(-c4ccccc4)cc3)NC(=O)[C@H](Cc3ccc(OCC(=O)O)cc3)NC2=O)c1 [Example 2667] ({CH2CO}-TYD[Phe(3-Me)]Y(Carboxymethyl)[Bip]Y(Carboxymethyl)[NMeA][dL][Dab][Cha]VEC[Dab][AEEA][12Ado]-OH; thioether N-14)	0.3 nM
Cc1cccc(C[C@@H]2NC(=O)[C@H](CC(=O)O)NC(=O)[C@H](Cc3ccc(OCC(=O)O)cc3)NC(=O)[C@H]([C@@H](C)O)NC(=O)CSC[C@@H](C(=O)N[C@@H](CCN)C(=O)NCCOCCOCC(=O)NCCCCCCCCCCCC(=O)O)NC(=O)[C@@H](CCC(=O)O)NC(=O)[C@H](C(C)C)NC(=O)[C@H](CC3CCCCC3)NC(=O)[C@H](CCN)NC(=O)[C@@H](CC(C)C)NC(=O)[C@H](C)N(C)C(=O)[C@H](Cc3ccc(OCC(=O)O)cc3)NC(=O)[C@H](Cc3ccc(-c4ccccc4)cc3)NC(=O)[C@H](Cc3ccc(OCC(=O)O)cc3)NC2=O)c1 [Example 2668] ({CH2CO}-TY(Carboxymethyl)D[Phe(3-Me)]Y(Carboxymethyl)[Bip]Y(Carboxymethyl)[NMeA][dL][Dab][Cha]V[dE]C[Dab][AEEA][12Ado]-OH; thioether N-14)	2.6 nM
